Experimental data from ChEMBL document CHEMBL1201862, “PubChem BioAssay data set” (2004).
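Method: 48-hour compound exposure of cells in 96-well plates, five concentrations, linear interpolation of endpoints. GI50 marks 50% less growth.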 Active and inactive are the calls of the source. No stated cut-off is given here; in the data, active = GI50 up to about 1.1 µM and inactive = higher.

Experiments:
Assay in all cases: inhibition of tumour cell growth, NCI panel, 48 h
[1] = test system: A498
[2] = test system: A549
[3] = test system: HCT-15
[4] = test system: HL-60
[5] = test system: HOP-62
[6] = test system: HOP-92
[7] = test system: K562
[8] = test system: MOLT-4
[9] = test system: Malme-3M
[10] = test system: NCI-H23
[11] = test system: NCI-H460
[12] = test system: NCI-H522
[13] = test system: OVCAR-5
[14] = test system: SF-539
[15] = test system: SK-MEL-28
[16] = test system: SNB-19
[17] = test system: UACC-257

SMILES | GI50 [1] | GI50 [2] | GI50 [3] | GI50 [4] | GI50 [5] | GI50 [6] | GI50 [7] | GI50 [8] | GI50 [9] | GI50 [10] | GI50 [11] | GI50 [12] | GI50 [13] | GI50 [14] | GI50 [15] | GI50 [16] | GI50 [17]
CCNc1c(C(=O)N(CC)CC)c(=O)[nH]c2ncccc12 | > 100 µM (inactive) | > 100 µM (inactive) | > 100 µM | > 100 µM (inactive) | > 100 µM (inactive) | > 100 µM (inactive) | > 100 µM (inactive) | > 100 µM (inactive) | > 100 µM (inactive) | > 100 µM (inactive) | > 100 µM (inactive) | > 100 µM (inactive) | > 100 µM (inactive) | > 100 µM (inactive) | > 100 µM (inactive) | > 100 µM (inactive) | > 100 µM (inactive)
O=C(/C=C1\NC(=O)c2ccccc2N1)c1ccncc1 | > 100 µM (inactive) | > 100 µM (inactive) | > 100 µM | > 100 µM (inactive) | > 100 µM (inactive) | – | > 100 µM (inactive) | > 100 µM (inactive) | > 100 µM (inactive) | > 100 µM (inactive) | > 100 µM (inactive) | > 100 µM (inactive) | > 100 µM (inactive) | – | > 100 µM (inactive) | > 100 µM (inactive) | > 100 µM (inactive)
CCOC(=O)Nc1ccc(S(=O)(=O)OC)cc1.CCOC(=O)Nc1ccc(S(=O)(=O)OC)cc1.NNC(=O)c1ccncc1 | > 50 µM (inactive) | > 50 µM (inactive) | > 50 µM | > 50 µM (inactive) | > 50 µM (inactive) | > 50 µM (inactive) | 40.2 µM (inactive) | > 50 µM (inactive) | > 50 µM (inactive) | > 50 µM (inactive) | > 50 µM (inactive) | – | > 50 µM (inactive) | > 50 µM (inactive) | > 50 µM (inactive) | > 50 µM (inactive) | > 50 µM (inactive)
CCn1c(C)nn2c(=O)c3ccccc3nc2c1=O | > 100 µM (inactive) | > 100 µM (inactive) | > 100 µM | > 100 µM (inactive) | > 100 µM (inactive) | 59.7 µM (inactive) | > 100 µM (inactive) | > 100 µM (inactive) | > 100 µM (inactive) | > 100 µM (inactive) | > 100 µM (inactive) | – | > 100 µM (inactive) | > 100 µM (inactive) | > 100 µM (inactive) | – | > 100 µM (inactive)
COC(=O)c1ccccc1N(C(=O)c1ccccc1)c1ccccc1C | 27.5 µM (inactive) | 61.9 µM (inactive) | 38.5 µM | 19.5 µM (inactive) | > 100 µM (inactive) | – | 41.1 µM (inactive) | 22.4 µM (inactive) | 36.3 µM (inactive) | 32.1 µM (inactive) | 29.8 µM (inactive) | 30.7 µM (inactive) | > 100 µM (inactive) | – | > 100 µM (inactive) | > 100 µM (inactive) | 39.2 µM (inactive)
CC1=NN(c2ccccc2)C(=O)C1/N=N/c1ccc(Br)cc1C (stereo unspecified) | 57 µM (inactive) | 40.5 µM (inactive) | > 100 µM | > 100 µM (inactive) | 27.9 µM (inactive) | 38.6 µM (inactive) | > 100 µM (inactive) | > 100 µM (inactive) | > 100 µM (inactive) | 38 µM (inactive) | > 100 µM (inactive) | – | > 100 µM (inactive) | 58.9 µM (inactive) | > 100 µM (inactive) | 85.9 µM (inactive) | > 100 µM (inactive)
CC1(C(=O)Nc2ccc3cc4ccccc4cc3c2)CC2(C)CC(C)(C1)C(O)NC2=O (stereo unspecified) | > 100 µM (inactive) | 98.4 µM (inactive) | > 100 µM | 20.9 µM (inactive) | > 100 µM (inactive) | 59.3 µM (inactive) | 73.1 µM (inactive) | 20.6 µM (inactive) | 57.3 µM (inactive) | > 100 µM (inactive) | 56 µM (inactive) | – | > 100 µM (inactive) | > 100 µM (inactive) | > 100 µM (inactive) | – | > 100 µM (inactive)
O=c1c2cc(Cl)ccc2sc2cccc(Cl)c12 | > 100 µM (inactive) | > 100 µM (inactive) | > 100 µM | > 100 µM (inactive) | > 100 µM (inactive) | > 100 µM (inactive) | > 100 µM (inactive) | > 100 µM (inactive) | – | > 100 µM (inactive) | > 100 µM (inactive) | > 100 µM (inactive) | > 100 µM (inactive) | > 100 µM (inactive) | > 100 µM (inactive) | > 100 µM (inactive) | > 100 µM (inactive)
COc1ccc(/C=C(\C(C)=O)C(=O)Nc2ccccc2)cc1 | – | > 100 µM (inactive) | > 100 µM | > 100 µM (inactive) | > 100 µM (inactive) | > 100 µM (inactive) | > 100 µM (inactive) | > 100 µM (inactive) | > 100 µM (inactive) | > 100 µM (inactive) | > 100 µM (inactive) | > 100 µM (inactive) | > 100 µM (inactive) | > 100 µM (inactive) | > 100 µM (inactive) | > 100 µM (inactive) | > 100 µM (inactive)
CC(C)c1ccc(O)c(Cc2cc(C(C)C)cc(Cc3cc(C(C)C)ccc3O)c2O)c1 | 1.46 µM (inactive) | 1.9 µM (inactive) | 1.7 µM | 2 µM (inactive) | 1.69 µM (inactive) | 1.79 µM (inactive) | 2.23 µM (inactive) | 1.78 µM (inactive) | 1.5 µM (inactive) | 1.7 µM (inactive) | 1.83 µM (inactive) | 1.57 µM (inactive) | 1.75 µM (inactive) | – | 1.73 µM (inactive) | 1.65 µM (inactive) | 1.71 µM (inactive)
CCN(CC)c1ccc(/N=N/c2ccc(-c3nc4ccc[n+](C)c4o3)cc2)cc1 | 15.7 µM (inactive) | 9.77 µM (inactive) | 10.3 µM | 2.06 µM (inactive) | 16.3 µM (inactive) | 15.2 µM (inactive) | 2.4 µM (inactive) | 3.66 µM (inactive) | 2.31 µM (inactive) | 12.8 µM (inactive) | 12.6 µM (inactive) | 4.93 µM (inactive) | 3.54 µM (inactive) | 5.46 µM (inactive) | – | 13.3 µM (inactive) | 7.01 µM (inactive)
CN(C)c1ccc(C2CC(=O)C(C#N)=C(c3ccccc3)NN2C)cc1 (stereo unspecified) | 27.6 µM (inactive) | 8.04 µM (inactive) | 4.33 µM | 3.13 µM (inactive) | 12.8 µM (inactive) | 21.1 µM (inactive) | – | 8.47 µM (inactive) | 5.65 µM (inactive) | 32.4 µM (inactive) | 5.52 µM (inactive) | 3.56 µM (inactive) | > 100 µM (inactive) | – | > 100 µM (inactive) | 12.1 µM (inactive) | 6.76 µM (inactive)
O=C(N/C=C1\C(=O)Oc2ccccc2C1=O)Nc1ccccc1 | 35.3 µM (inactive) | 53.1 µM (inactive) | 40.3 µM | > 100 µM (inactive) | – | 25.8 µM (inactive) | > 100 µM (inactive) | > 100 µM (inactive) | 17 µM (inactive) | 88.7 µM (inactive) | 63.8 µM (inactive) | 58.5 µM (inactive) | 61.5 µM (inactive) | 43.8 µM (inactive) | 87.1 µM (inactive) | 29 µM (inactive) | 91.2 µM (inactive)
O=[N+]([O-])c1ccc(Cl)c(C2CC(c3cccc4ccccc34)=Nc3ccccc3S2)c1 (stereo unspecified) | > 45.2 µM (inactive) | 28.7 µM (inactive) | 15.2 µM | 5.21 µM (inactive) | 55.7 µM (inactive) | 2.64 µM (inactive) | 6.31 µM (inactive) | 6.75 µM (inactive) | > 54.8 µM (inactive) | 11.4 µM (inactive) | 26.5 µM (inactive) | 14.3 µM (inactive) | 42.1 µM (inactive) | 20.6 µM (inactive) | 27.3 µM (inactive) | 44.4 µM (inactive) | 31.6 µM (inactive)
COc1ccc(NC(=O)C(=O)c2c(O)c3ccc(O)cc3oc2=O)c([N+](=O)[O-])c1 | > 100 µM (inactive) | > 100 µM (inactive) | > 100 µM | > 100 µM (inactive) | – | > 100 µM (inactive) | > 100 µM (inactive) | > 100 µM (inactive) | > 100 µM (inactive) | > 100 µM (inactive) | > 100 µM (inactive) | > 100 µM (inactive) | > 100 µM (inactive) | > 100 µM (inactive) | > 100 µM (inactive) | > 100 µM (inactive) | > 100 µM (inactive)
COc1ccccc1/C=C1\CCC(CCN(C)C)(C2=CCCC2)C1=O (stereo unspecified) | 16.6 µM (inactive) | 23.9 µM (inactive) | 19.2 µM | 21.6 µM (inactive) | 17.3 µM (inactive) | 16.9 µM (inactive) | 11.1 µM (inactive) | 20.7 µM (inactive) | 15.7 µM (inactive) | 31.6 µM (inactive) | 14.8 µM (inactive) | 14.1 µM (inactive) | 19.1 µM (inactive) | 15.1 µM (inactive) | 17.7 µM (inactive) | 16.1 µM (inactive) | 17.2 µM (inactive)
COC(=O)CC(C(C(=O)OC)C(=O)OC)N1C(=O)OCC1c1ccccc1 (stereo unspecified) | > 100 µM (inactive) | > 100 µM (inactive) | > 100 µM | > 100 µM (inactive) | > 100 µM (inactive) | > 100 µM (inactive) | > 100 µM (inactive) | > 100 µM (inactive) | > 100 µM (inactive) | > 100 µM (inactive) | > 100 µM (inactive) | > 100 µM (inactive) | > 100 µM (inactive) | > 100 µM (inactive) | > 100 µM (inactive) | > 100 µM (inactive) | > 100 µM (inactive)
c1ccc2c3c([nH]c2c1)C1C2CCCCN2C(c2ccncc2)N1CC3 (stereo unspecified) | – | 32.2 µM (inactive) | 35.5 µM | 21.5 µM (inactive) | 52.5 µM (inactive) | – | 32.1 µM (inactive) | 43.3 µM (inactive) | 34 µM (inactive) | 34.4 µM (inactive) | 29.6 µM (inactive) | 39.2 µM (inactive) | 35.7 µM (inactive) | 58.3 µM (inactive) | 39.9 µM (inactive) | 25.4 µM (inactive) | 51.2 µM (inactive)
